Data published in patent US11065244B2, “Methods of use of tetrahydroberberine (THB)” (DIGNITY HEALTH, priority 2010, dated 2021).

Tests used:
Assay type in all cases: cell-based
[1] = target: T1, pancreatic β-cell KATP channels (Rattus norvegicus, UniProt P70673+Q09429); test: Whole-cell KATP currents induced by ramp pulses in rat pancreatic β-cells; settings: 100 μM bath application; external glucose 5.5 mM; ramp −90 to −50 mV
T1 construct: Single Channel Currents of KATP Channels in Rat Pancreatic β-Cells; from tissue; host or cells: rat pancreatic β-cells
T1 sequence (P70673 whole entry): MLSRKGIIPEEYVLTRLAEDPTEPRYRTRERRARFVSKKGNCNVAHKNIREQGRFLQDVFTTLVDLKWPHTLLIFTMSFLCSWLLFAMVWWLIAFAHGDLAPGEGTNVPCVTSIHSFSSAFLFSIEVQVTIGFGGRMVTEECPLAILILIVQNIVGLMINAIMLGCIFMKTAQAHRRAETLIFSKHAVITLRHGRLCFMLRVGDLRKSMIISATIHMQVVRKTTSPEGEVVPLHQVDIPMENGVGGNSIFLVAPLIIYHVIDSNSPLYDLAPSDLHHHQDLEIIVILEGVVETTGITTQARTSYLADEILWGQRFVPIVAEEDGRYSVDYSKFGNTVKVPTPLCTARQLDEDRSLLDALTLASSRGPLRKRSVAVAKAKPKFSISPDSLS
T1 sequence (Q09429 whole entry): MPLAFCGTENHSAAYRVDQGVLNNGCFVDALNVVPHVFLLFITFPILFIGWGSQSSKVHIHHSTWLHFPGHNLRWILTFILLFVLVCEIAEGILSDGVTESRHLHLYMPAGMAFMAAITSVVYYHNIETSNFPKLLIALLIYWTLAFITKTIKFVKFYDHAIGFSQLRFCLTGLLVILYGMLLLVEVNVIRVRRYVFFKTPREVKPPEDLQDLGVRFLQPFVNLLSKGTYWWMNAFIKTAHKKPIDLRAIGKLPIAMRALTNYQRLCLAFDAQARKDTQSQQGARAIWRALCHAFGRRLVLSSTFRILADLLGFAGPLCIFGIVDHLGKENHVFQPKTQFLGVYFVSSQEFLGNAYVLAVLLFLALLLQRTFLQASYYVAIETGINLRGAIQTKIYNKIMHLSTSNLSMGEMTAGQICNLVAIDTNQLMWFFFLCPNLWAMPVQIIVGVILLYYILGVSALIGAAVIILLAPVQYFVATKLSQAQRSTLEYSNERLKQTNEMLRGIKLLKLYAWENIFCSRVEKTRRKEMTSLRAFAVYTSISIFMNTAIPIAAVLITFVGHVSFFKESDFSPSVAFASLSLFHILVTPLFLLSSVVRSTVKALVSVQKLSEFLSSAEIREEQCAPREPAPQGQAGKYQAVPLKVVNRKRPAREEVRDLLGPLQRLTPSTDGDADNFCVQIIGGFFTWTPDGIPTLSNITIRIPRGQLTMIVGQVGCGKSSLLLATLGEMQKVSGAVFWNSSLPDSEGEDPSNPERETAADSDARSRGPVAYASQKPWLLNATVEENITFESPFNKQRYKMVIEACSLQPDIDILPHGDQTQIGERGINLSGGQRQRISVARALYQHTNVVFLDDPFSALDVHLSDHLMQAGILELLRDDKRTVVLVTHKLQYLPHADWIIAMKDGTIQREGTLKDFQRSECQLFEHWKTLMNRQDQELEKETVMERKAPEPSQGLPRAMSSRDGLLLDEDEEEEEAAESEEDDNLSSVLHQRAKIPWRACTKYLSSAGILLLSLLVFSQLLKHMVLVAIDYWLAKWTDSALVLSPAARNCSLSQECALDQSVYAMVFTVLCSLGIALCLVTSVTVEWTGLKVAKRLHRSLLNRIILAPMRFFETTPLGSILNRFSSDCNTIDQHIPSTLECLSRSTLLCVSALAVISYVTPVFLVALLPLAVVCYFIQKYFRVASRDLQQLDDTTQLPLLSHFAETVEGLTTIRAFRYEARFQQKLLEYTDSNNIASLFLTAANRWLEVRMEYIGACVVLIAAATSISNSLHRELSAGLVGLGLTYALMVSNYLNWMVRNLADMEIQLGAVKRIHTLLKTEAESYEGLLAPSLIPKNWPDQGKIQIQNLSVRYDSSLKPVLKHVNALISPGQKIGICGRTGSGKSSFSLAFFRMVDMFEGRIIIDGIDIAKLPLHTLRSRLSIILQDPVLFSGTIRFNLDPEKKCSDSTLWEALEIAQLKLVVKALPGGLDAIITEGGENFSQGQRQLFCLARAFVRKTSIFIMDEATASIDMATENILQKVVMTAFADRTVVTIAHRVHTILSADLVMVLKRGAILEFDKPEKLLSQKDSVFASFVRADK
Description: To determine whether or not THB and Ipt can block pancreatic β-cell KATP channels, whole-cell currents induced by repetitive ramp pulses from −90 to −50 mV (at 0.2 Hz) were recorded in voltage-clamp mode (external glucose=5.5 mM).

[2] = target: T2, KATP channels in SNc DA neurons (Rattus norvegicus, UniProt P70673+Q09429); test: Perforated patch current-clamp recording of rotenone-opened KATP channels in dissociated SNc DA neurons; settings: for altered membrane potential in the presence of rotenone: FIG. 5C
T2 construct: functional KATP channels natively expressed on midbrain dopamine neurons; from tissue; host or cells: acutely dissociated dopaminergic neurons of rat substantia nigra pars compacta
T2 sequence (P70673 whole entry): as the sequence (P70673 whole entry) above
T2 sequence (Q09429 whole entry): as the sequence (Q09429 whole entry) above
Description: The protocol for preparation of single neurons from the rat SNc was approved by the Institutional Animal Care and Use Committee of the Barrow Neurological Institute. Single DA neurons were acutely dissociated from the SNc of 2-3-week-old Wistar rats following the protocol as previously described. Briefly, rats were anesthetized with isoflurane, and brain tissue was rapidly removed and immersed in cold (2-4° C.) dissection solution which contained: 136.7 mM NaCl, 5 mM KCl, 0.1 mM Na2HPO4, 0.2 mM KH2PO4, 9.84 mM HEPES, 16.6 mM D-glucose, 21.9 mM sucrose, pH 7.3, 330 mOsm, oxygenated with 100% O2 [8]. Three 400-μm coronal slices containing the SNc were cut using a vibrotome (Vibroslice 725M, WPI, Sarasota, Fla.). After cutting, slices were continuously bubbled with 95% O2-5% CO2 at room temperature (22±1° C.) for at least one hour in artificial cerebrospinal fluid (ACSF), which contained: 124 mM NaCl, 5 mM KCl, 24 mM NaHCO3, 1.3 mM MgSO4, 1.2 mM KH2PO4, 2.4 mM CaCl2, and 10 mM glucose, pH 7.4. Thereafter, slices were treated with pronase (1 mg per 6 ml) at 31° C. for 30 minutes in ACSF. The SNc was identified in a coronal slice using a stereo microscope with reference to the rat brain atlas, and was micro-punched out from slices using a well-polished needle. One punched piece was then transferred to a 35-mm culture dish filled with well-oxygenated standard extracellular solution, which contained: 150 mM NaCl, 5 mM KCl, 1 mM MgCl2, 2 mM CaCl2, 10 mM glucose 10, and 10 mM HEPES, pH 7.4 (with Tris-base). The punched piece was then dissociated mechanically using a fire-polished micro-Pasteur pipette under an inverted microscope (Olympus IX-70, Lake Success, N.Y.). The separated cells adhered to the bottom of the culture dish within 30 minutes. In the present study, we used only DA neurons that maintained their original morphological features of polygonal, large or medium somata with 2-4 thick primary dendritic processes were used.
Perforated patch whole-cell recording techniques were employed as previously described. Pipettes (3-5 MΩ) used for perforated patch recording were filled with intracellular recording solution containing 140 mM potassium gluconate, 10 mM KCl, 5 mM MgCl2, and 10 mM HEPES, pH 7.2 (with Tris-OH). The amphotericin B was freshly prepared to 200-240 μg/ml from a 40 mg/ml in DMSO stock. The liquid junction potential was 14 mV calculated using Clamplex 9.2 (Axon Instruments, Foster City, Calif.) and corrections were made for junction potentials post-hoc. After tight seal (>2 GΩ) formation, it usually took about 5-20 min to convert to perforated patch mode, and an access resistance of 20-60 MΩ was accepted to start the experiments. Series resistance was not compensated in this study. The data were filtered at 2 kHz, acquired at 10 kHz and digitized on-line (Digidata 1322 series A/D board, Axon Instruments, Foster City, Calif.). […] Drug application was performed using a computer-controlled “U-tube” system as previously described. All experiments were performed at room temperature (22±1° C.). To enable identification of single, dissociated SNc neurons after a patch-clamp recording session, the recording pipette was filled with a fluorescent dye (lucifer yellow CH, Sigma Chemical Co., St. Louis, Mo., 1.0 mg/ml in the recording electrode) in some experiments. After conversion from the perforated patch to the conventional whole-cell recording mode, the dye was ejected into the cytoplasm by a pulse (200 ms, 0.5 Hz) of hyperpolarizing current (1.0 nA) for 3 min. Labeled cells were visualized using epifluorescence microscopy.
Under physiological conditions, the KATP channels are mostly closed. However, in the acutely-dissociated single neurons from rat SNc, there is background opening of KATP channels. […]

[3] = target: T1, pancreatic β-cell KATP channels; test: Inside-out patch single channel recording in rat pancreatic β-cells, ATP free solution; settings: bath-applied
Kir6.2SUR1 KATP channels = target: T3, Kir6.2SUR1 KATP channels (Homo sapiens, UniProt Q09428+Q14654); test: Patch-clamp cell attached single-channel recording of transfected Kir6.2SUR1 channels in HEK-293 cells
T3 construct: expressed in transfected cells; host or cells: HEK-293
T3 sequence (Q14654 whole entry): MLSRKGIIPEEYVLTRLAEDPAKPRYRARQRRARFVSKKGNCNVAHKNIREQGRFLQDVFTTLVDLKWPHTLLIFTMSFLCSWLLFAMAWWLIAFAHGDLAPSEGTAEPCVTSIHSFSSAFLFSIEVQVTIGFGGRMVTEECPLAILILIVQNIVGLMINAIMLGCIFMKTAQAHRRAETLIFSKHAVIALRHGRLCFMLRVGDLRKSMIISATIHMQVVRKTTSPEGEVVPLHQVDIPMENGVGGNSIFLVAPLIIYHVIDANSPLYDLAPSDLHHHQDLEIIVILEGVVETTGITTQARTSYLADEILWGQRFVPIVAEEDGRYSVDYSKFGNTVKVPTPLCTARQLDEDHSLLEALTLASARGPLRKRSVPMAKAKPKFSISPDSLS
T3 sequence (Q09428 whole entry): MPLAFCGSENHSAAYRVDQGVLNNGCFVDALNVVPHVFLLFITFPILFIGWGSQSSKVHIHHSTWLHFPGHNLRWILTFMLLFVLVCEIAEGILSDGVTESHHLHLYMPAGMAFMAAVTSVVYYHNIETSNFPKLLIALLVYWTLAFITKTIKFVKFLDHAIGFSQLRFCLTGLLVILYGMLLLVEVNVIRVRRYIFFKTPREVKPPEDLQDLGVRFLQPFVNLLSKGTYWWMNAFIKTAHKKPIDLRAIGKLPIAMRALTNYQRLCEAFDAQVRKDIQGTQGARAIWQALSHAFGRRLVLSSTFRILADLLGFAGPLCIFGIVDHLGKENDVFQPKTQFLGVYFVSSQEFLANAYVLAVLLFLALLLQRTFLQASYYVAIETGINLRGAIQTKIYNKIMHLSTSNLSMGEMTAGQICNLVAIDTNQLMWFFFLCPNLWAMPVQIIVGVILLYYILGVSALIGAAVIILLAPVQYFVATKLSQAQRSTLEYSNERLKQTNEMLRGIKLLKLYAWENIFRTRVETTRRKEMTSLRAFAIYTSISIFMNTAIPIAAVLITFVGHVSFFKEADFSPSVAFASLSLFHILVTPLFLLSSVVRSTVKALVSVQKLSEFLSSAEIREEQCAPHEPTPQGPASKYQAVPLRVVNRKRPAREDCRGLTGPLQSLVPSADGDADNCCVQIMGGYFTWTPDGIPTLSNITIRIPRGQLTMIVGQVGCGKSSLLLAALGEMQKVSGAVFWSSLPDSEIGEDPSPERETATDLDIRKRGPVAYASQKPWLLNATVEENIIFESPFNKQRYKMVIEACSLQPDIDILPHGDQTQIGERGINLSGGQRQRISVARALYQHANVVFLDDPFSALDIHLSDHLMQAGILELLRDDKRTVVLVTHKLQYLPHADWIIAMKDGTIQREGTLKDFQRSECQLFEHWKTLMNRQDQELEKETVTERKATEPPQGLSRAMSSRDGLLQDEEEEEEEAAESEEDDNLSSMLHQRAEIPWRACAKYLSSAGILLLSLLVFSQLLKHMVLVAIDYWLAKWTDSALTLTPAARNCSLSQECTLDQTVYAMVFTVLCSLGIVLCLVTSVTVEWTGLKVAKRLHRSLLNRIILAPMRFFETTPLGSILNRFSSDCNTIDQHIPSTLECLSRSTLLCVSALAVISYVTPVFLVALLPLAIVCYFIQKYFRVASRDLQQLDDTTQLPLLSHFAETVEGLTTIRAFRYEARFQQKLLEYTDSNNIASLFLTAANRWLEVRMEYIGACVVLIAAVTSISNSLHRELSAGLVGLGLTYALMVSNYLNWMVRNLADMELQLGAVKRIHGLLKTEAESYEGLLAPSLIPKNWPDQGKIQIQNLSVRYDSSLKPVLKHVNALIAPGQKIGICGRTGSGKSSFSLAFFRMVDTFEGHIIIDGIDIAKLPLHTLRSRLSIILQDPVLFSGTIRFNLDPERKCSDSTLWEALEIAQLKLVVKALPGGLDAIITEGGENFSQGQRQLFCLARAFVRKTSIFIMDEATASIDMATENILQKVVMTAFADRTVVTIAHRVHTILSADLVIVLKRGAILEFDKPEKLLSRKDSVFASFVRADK
Description: In β-cells, the dominant subtype of KATP is the Kir 6.2SUR1 subtype, as earlier described. Cells transiently transfected with the KATP Kir 6.2SUR1 channel subtype were evaluated for membrane potential and action potential firing using cell-attached recording in the presence or absence of 100 μm THB (FIG. 8A).
To further determine the effects of THB and Ipt on pancreatic β-cell-type KATP channels, the inventor examined the effects of THB or Ipt on the transfected Kir6.2SUR1 KATP channels in HEK-293 cells.

For `COc1ccc2c(c1OC)CN1CCc3cc4c(cc3C1C2)OCO4` (stereo not drawn) [THB, tetrahydroberberine], the “effect on β-cell KATP channel-mediated whole-cell currents” value [1] was “reduced these β-cell KATP channel-mediated currents”, the “membrane potential after substance during persistent perfusion of rotenone” value ([2]; 1 μM rotenone, before: THB −61.7±1.3 (n=11), tolbutamide −61.6±1.2 (n=21), p<0.01) was −46.7±0.9 mV and the “altered membrane potential in the presence of rotenone” value ([2]; 1 μM substance) was 0.8±0.3 mV. For the same compound, the “altered membrane potential in the presence of rotenone” value ([2]; 10 μM substance) was 5.7±0.7 mV, the “altered membrane potential in the presence of rotenone” value ([2]; 100 μM substance) was 15.1±1.2 mV and the “altered membrane potential (depolarization) on rotenone-opened KATP channels, analog comparison” value ([2]; 100 μM, 6 neurons, FIG. 4B) was 15.5±1.6 mV. For the same compound, the “Hill coefficient of concentration-effect relationship curve” value ([2]; membrane depolarization in the presence of rotenone) was 2.1, the IC50 ([2]; membrane depolarization in the presence of rotenone, read-out: IC50 of concentration-effect relationship curve (block of KATP channels)) was 13.1 µM and the “effect on rotenone-induced membrane hyperpolarization in the presence of D2 receptor antagonist” value ([2]; rotenone 1 mM and sulpiride 10 mM as printed, 6 neurons, FIG. 7A) was “significantly restored membrane hyperpolarization and action potential firing”. For the same compound, the “effect on single channel activities opened by ATP free solution” value [3] was “inhibited these single channel activities”, the “normalized NPo value” (Kir6.2SUR1 KATP channels; 100 μM, control as 1, THB 6 patches, Ipt 8 patches) was 0.51±0.05 and the “change in channel activity NP0 compared to control” value (Kir6.2SUR1 KATP channels; 100 μm THB, three experiments, FIG. 8B) was 50%.
